In US20260184663A1, “INDENE COMPOUNDS, PHARMACEUTICAL COMPOSITIONS THEREOF, AND THEIR THERAPEUTIC APPLICATIONS” (NucMito Pharmaceuticals co. Ltd., priority 2022, published 2026) one finds inhibition data, which are given here for 5 compounds.

Where two headings read alike, the source gives them in different places. Some results are limits rather than exact numbers.

Holding throughout (format): cell-based
The test system of assay [1] is A431 (epidermoid carcinoma). In words: Antiproliferative activity (CCK-8 cell viability), A431. The note with it: Homo sapiens, 72 h; for inhibition at 3.3 µM: A-431, Compound concentration: 3.3 μM; for inhibition at 10 µM: A-431, Compound concentration: 10 μM; for inhibition at 30 µM: A-431, Compound concentration: 30 μM. In outline: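 A431 epidermoid carcinoma cells grown in DMEM with 10% FBS were plated at 2,000-5,000 cells/well in 96-well plates. After attachment they were exposed to compound at 3.3 μM, 10 μM, or 30 μM for 72 h at 37° C. Viability was then assessed by CCK-8 against DMSO vehicle-treated wells.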

The next assay has as its system SW480 (colon cancer). In words: Antiproliferative activity (CCK-8 cell viability), SW480. As to conditions: Homo sapiens, 72 h; for inhibition at 3.3 µM: Compound concentration: 3.3 μM; for inhibition at 10 µM: Compound concentration: 10 μM; for inhibition at 30 µM: Compound concentration: 30 μM. In a few lines: (§1)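 Cells grown in DMEM (HepG2, SW480), MEM (HeLa) or F-12K (A549), each with 10% FBS, then exposed to compound at 3.3, 10 or 30 μM for 72 h at 37 °C. CCK-8 absorbance at 450 nm; viability expressed as percent of DMSO-treated cells, graded as growth inhibition bands.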

The subject of a further assay is HepG2 (liver cancer). The assay can be described thus: Antiproliferative activity (CCK-8 cell viability), HepG2. The note with it: Homo sapiens, 72 h; for inhibition at 3.3 µM: Compound concentration: 3.3 μM; for inhibition at 10 µM: Compound concentration: 10 μM; for inhibition at 30 µM: Compound concentration: 30 μM. In outline: as §1
In assay [2] the test system is MDA-MB-231 (breast cancer). In words: Antiproliferative activity (CCK-8 cell viability), MDA-MB-231. As to conditions: Homo sapiens, 72 h, read-out: Antiproliferative activity in cancerous cells, MDA-MB-231 (inhibition of cell growth); for inhibition at 3.3 µM: Compound concentration: 3.3 μM; for inhibition at 10 µM: Compound concentration: 10 μM. In outline: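 MDA-MB-231 breast cancer cells, grown in DMEM with 10% FBS, were plated in 96-well plates at 2,000-5,000 cells/well. Once attached, they were exposed to compound and incubated at 37° C. for 72 h. Viability was then measured with CCK-8 (10 μL per well, 4 h at 37° C.) by absorbance at 450 nm, relative to DMSO vehicle wells.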

The test system of assay [3] is A549 (lung adenocarcinoma). The assay can be described thus: Antiproliferative activity (CCK-8 cell viability), A549. As to conditions: Homo sapiens, 72 h; for inhibition at 3.3 µM: Compound concentration: 3.3 μM; for inhibition at 10 µM: Compound concentration: 10 μM; for inhibition at 30 µM: Compound concentration: 30 μM. In a few lines:
as §1

The test system of another assay is HeLa (cervical cancer). The assay can be described thus: Antiproliferative activity (CCK-8 cell viability), HeLa. As to conditions: Homo sapiens, 72 h, read-out: Antiproliferative activity in cancerous cells, HELA (inhibition of cell growth); for inhibition at 3.3 µM: Compound concentration: 3.3 μM; for inhibition at 10 µM: Compound concentration: 10 μM. In a few lines: as §1

For assay [4], the system named is B16F10 (malignant melanoma). In words: Antiproliferative activity (CCK-8 cell viability), B16F10. As to conditions: Mus musculus, 72 h; for inhibition at 3.3 µM: B16-F10, Compound concentration: 3.3 μM; for inhibition at 10 µM: B16-F10, Compound concentration: 10 μM; for inhibition at 30 µM: B16-F10, Compound concentration: 30 μM. In a few lines:
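B16F10 melanoma cells grown in DMEM with 10% FBS were plated in 96-well plates at 2,000-5,000 cells/well. After attachment they were exposed to compound in medium for 72 h at 37° C. CCK-8 solution (10 μL) was then added, and after 4 h at 37° C absorbance was read at 450 nm.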

Assay [5] relates to alpha-smooth muscle actin (α-SMA). In words: Inhibition of TGF-β induced expression of alpha-smooth muscle actin (α-SMA) in CFSC cells (western blot). The note with it: compound at 10 μM, TGF-β (10 ng/mL), 24 hours, band intensity vs TGF-β only. In a few lines:
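Values are percent reduction of α-SMA band intensity relative to cells given TGF-β alone, quantified by Western blot densitometry with β-actin probed. Compound was applied at 10 μM alongside 10 ng/mL TGF-β to serum-free CFSC cultures for 24 h at 37 °C.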

[6] abbreviates: read-out: Antiproliferative activity in cancerous cells, A431 (inhibition of cell growth).
Where [7] appears, read: read-out: Antiproliferative activity in cancerous cells, SW480 (inhibition of cell growth).
Setting [8] is: read-out: Antiproliferative activity in cancerous cells, HepG2 (inhibition of cell growth).
The mark [9] stands for this setting: read-out: Antiproliferative activity in cancerous cells, A549 (inhibition of cell growth).
Setting [10] is: read-out: Antiproliferative activity in cancerous cells, B16F10 (inhibition of cell growth).

As to `CC1=C(CC(=O)O)c2cc(F)ccc2/C1=C/c1ccc(F)cc1OCc1ccccc1` [E5, (E)-2-(1-(2-(Benzyloxy)-4-fluorobenzylidene)-5-fluoro-2-methyl-1H-inden-3-yl)-acetic acid], the inhibition at 3.3 µM in assay [1] (setting [6]) was < 30%; in the assay on SW480 (colon cancer) (setting [7]), 30 to 50%; in the assay on HepG2 (liver cancer) (setting [8]), 30 to 50%; in assay [2], 30 to 50%; in assay [3] (setting [9]), < 30%; in the assay with HeLa (cervical cancer), < 30%. For the same compound, in assay [4] (setting [10]), the inhibition at 3.3 µM was ≥ 50%. Further, the inhibition at 10 µM in assay [1] (setting [6]) is 30 to 50%; in the assay on SW480 (colon cancer) (setting [7]), 30 to 50%; in the assay with HepG2 (liver cancer) (setting [8]), ≥ 50%; in assay [2] it was 30 to 50%; in assay [3] (setting [9]) it was ≥ 50%; in the assay on HeLa (cervical cancer), ≥ 50%. Also, the inhibition at 10 µM in assay [4] (setting [10]) is ≥ 50%; in assay [5], > 80%. Also, the inhibition at 30 µM (in assay [1] (setting [6]); in the assay on SW480 (colon cancer) (setting [7]); in the assay with HepG2 (liver cancer) (setting [8]); in assay [2] (Compound concentration: 30 μM); in assay [3] (setting [9]); with HeLa (cervical cancer) (Compound concentration: 30 μM)) was ≥ 50% throughout. In assay [4] (setting [10]), the inhibition at 30 µM was ≥ 50%.

Take `O=C(O)CC1=C(C2CCc3ccc(F)cc32)/C(=C/c2ccc(Oc3ccc(F)cc3)cc2)c2ccc(F)cc21` (stereo not drawn) [C12, (Z)-2-(5′,6-Difluoro-1′-(4-(4-fluorophenoxy)benzylidene)-2,3-dihydro-1H,1′H-[1,2′-biinden]-3′-yl)acetic acid]: the inhibition at 3.3 µM (in assay [1] (setting [6]); in the assay on SW480 (colon cancer) (setting [7]); in the assay on HepG2 (liver cancer) (setting [8]); in assay [2]; in assay [3] (setting [9]); in the assay on HeLa (cervical cancer)) was ≥ 50% each time. Besides, the inhibition at 3.3 µM in assay [4] (setting [10]) was ≥ 50%. Moreover, the inhibition at 10 µM (in assay [1] (setting [6]); in the assay on SW480 (colon cancer) (setting [7]); with HepG2 (liver cancer) (setting [8]); in assay [2]; in assay [3] (setting [9]); with HeLa (cervical cancer)) was ≥ 50% each time. The inhibition at 10 µM was ≥ 50% in assay [4] (setting [10]) and > 80% in assay [5].

Consider `O=C(O)CC1=C(CC2CCCC2)/C(=C/c2cccc(COc3ccccc3)c2)c2ccc(F)cc21` [A6, (Z)-2-(2-(Cyclopentylmethyl)-5-fluoro-1-(3-(phenoxymethyl)benzylidene)-1H-inden-3-yl)acetic acid], for which the inhibition at 3.3 µM in assay [1] (setting [6]) was ≥ 50%; in the assay with SW480 (colon cancer) (setting [7]), < 30%; in the assay with HepG2 (liver cancer) (setting [8]) it was ≥ 50%; in assay [2], ≥ 50%; in assay [3] (setting [9]), ≥ 50%; in the assay on HeLa (cervical cancer) it was ≥ 50%. Also, the inhibition at 3.3 µM in assay [4] (setting [10]) is ≥ 50%. In addition, the inhibition at 10 µM (in assay [1] (setting [6]); in the assay on SW480 (colon cancer) (setting [7]); in the assay with HepG2 (liver cancer) (setting [8]); in assay [2]; in assay [3] (setting [9]); in the assay with HeLa (cervical cancer)) was ≥ 50% throughout. Further, the inhibition at 10 µM in assay [4] (setting [10]) was ≥ 50%; in assay [5], > 80%.

Regarding `O=C(O)CC1=C/C(=C/c2cccc(Oc3ccccc3)c2)c2cc(OCC(F)(F)F)ccc21` [C15, (Z)-2-(1-(3-Phenoxybenzylidene)-6-(2,2,2-trifluoroethoxy)-1H-inden-3-yl)acetic acid], the inhibition at 3.3 µM in assay [1] (setting [6]) was < 30%; in the assay with SW480 (colon cancer) (setting [7]), < 30%; in the assay with HepG2 (liver cancer) (setting [8]) it was < 30%; in assay [2] it was 30 to 50%; in assay [3] (setting [9]), < 30%; in the assay with HeLa (cervical cancer), < 30%. In addition, in assay [4] (setting [10]), the inhibition at 3.3 µM was < 30%. The inhibition at 10 µM in assay [1] (setting [6]) was < 30%; with SW480 (colon cancer) (setting [7]), < 30%; with HepG2 (liver cancer) (setting [8]) it was < 30%; in assay [2] it was ≥ 50%; in assay [3] (setting [9]), < 30%; in the assay on HeLa (cervical cancer), 30 to 50%. The inhibition at 10 µM in assay [4] (setting [10]) and in assay [5] was < 30% each time. Further, the inhibition at 30 µM was < 30% in assay [1] (read-out: Antiproliferative activity in cancerous cells, A431); < 30% in the assay with SW480 (colon cancer) (read-out: Antiproliferative activity in cancerous cells, SW480); 30 to 50% in the assay with HepG2 (liver cancer) (read-out: Antiproliferative activity in cancerous cells, HepG2); < 30% in assay [3] (read-out: Antiproliferative activity in cancerous cells, A549); 30 to 50% in assay [4] (read-out: Antiproliferative activity in cancerous cells, B16F10).

On to `CC1=C(CC(=O)O)c2ccc(F)cc2/C1=C\c1cccc(Oc2ccccc2)c1` [C16, (Z)-2-(6-Fluoro-2-methyl-1-(3-phenoxybenzylidene)-1H-inden-3-yl)acetic acid], for which the inhibition at 3.3 µM in assay [1] (setting [6]) is ≥ 50%; in the assay on SW480 (colon cancer) (setting [7]), < 30%; in the assay with HepG2 (liver cancer) (setting [8]), ≥ 50%; in assay [2], ≥ 50%; in assay [3] (setting [9]), < 30%; in the assay with HeLa (cervical cancer), < 30%. Moreover, the inhibition at 3.3 µM in assay [4] (setting [10]) is < 30%. Moreover, the inhibition at 10 µM in assay [1] (setting [6]) was ≥ 50%; in the assay on SW480 (colon cancer) (setting [7]) it was < 30%; in the assay with HepG2 (liver cancer) (setting [8]), ≥ 50%; in assay [2], 30 to 50%; in assay [3] (setting [9]), 30 to 50%; with HeLa (cervical cancer) it was < 30%. Moreover, the inhibition at 10 µM was ≥ 50% in assay [4] (setting [10]) and > 80% in assay [5].
